# Measurements as given in patent US5474921A, “Expression and purification of phosphoinositide-specific phospholipase C-γ” (Merck & Co., Inc., priority 1993, dated 1995).
# B1: bacterially expressed PLCγ1: rat brain PLCγ1 with C-terminal Glu-Glu-Phe epitope tag, expressed in E. coli BL21 (DE3) from plasmid pT5T-PLC4 (protein, UniProt P10686 2-1290, looked up)
# 1-phosphatidylinositol …: AGVGTPCANGCGPSAPSEAEVLHLCRSLEVGTVMTLFYSKKSQRPERKTFQVKLETRQITWSRGADKIEGSIDIREIKEIRPGKTSRDFDRYQEDPAFRPDQSHCFVILYGMEFRLKTLSLQATSEDEVNMWIKGLTWLMEDTLQAATPLQIERWLRKQFYSVDRNREDRISAKDLKNMLSQVNYRVPNMRFLRERLTDFEQRSGDITYGQFAQLYRSLMYSAQKTMDLPFLETNTLRTGERPELCQVSLSEFQQFLLEYQGELWAVDRLQVQEFMLSFLRDPLREIEEPYFFLDELVTFLFSKENSVWNSQLDAVCPETMNNPLSHYWISSSHNTYLTGDQFSSESSLEAYARCLRMGCRCIELDCWDGPDGMPVIYHGHTLTTKIKFSDVLHTIKEHAFVASEYPVILSIEDHCSIAQQRNMAQHFRKVLGDTLLTKPVDIAADGLPSPNQLKRKILIKHKKLAEGSAYEEVPTSVMYSENDISNSIKNGILYLEDPVNHEWYPHYFVLTSSKIYYSEETSSDQGNEDEEEPKEASGSTELHSSEKWFHGKLGAGRDGRHIAERLLTEYCIETGAPDGSFLVRESETFVGDYTLSFWRNGKVQHCRIHSRQDAGTPKFFLTDNLVFDSLYDLITHYQQVPLRCNEFEMRLSEPVPQTNAHESKEWYHASLTRAQAEHMLMRVPRDGAFLVRKRNEPNSYAISFRAEGKIKHCRVQQEGQTVMLGNSEFDSLVDLISYYEKHPLYRKMKLRYPINEEALEKIGTAEPDYGALYEGRNPGFYVEANPMPTFKCAVKALFDYKAQREDELTFTKSAIIQNVEKQDGGWWRGDYGGKKQLWFPSNYVEEMINPAILEPEREHLDENSPLGDLLRGVLDVPACQIAIRPEGKNNRLFVFSISMPSVAQWSLDVAADSQEELQDWVKKIREVAQTADARLTEGKMMERRKKIALELSELVVYCRPVPFDEEKIGTERACYRDMSSFPETKAEKYVNKAKGKKFLQYNRLQLSRIYPKGQRLDSSNYDPLPMWICGSQLVALNFQTPDKPMQMNQALFMAGGHCGYVLQPSTMRDEAFDPFDKSSLRGLEPCVICIEVLGARHLPKNGRGIVCPFVEIEVAGAEYDSTKQKTEFVVDNGLNPVWPAKPFHFQISNPEFAFLRFVVYEEDMFSDQNFLAQATFPVKGLKTGYRAVPLKNNYSEDLELASLLIKIDIFPAKENGDLSPFSGTSLRERASDASSQLFHVRAREGSFEARYQQPFEDFRISQEHLADHFDSRERRAPRRTRVNGDNRL
# modifications: C-terminal Glu-Glu-Phe epitope tag
# Experiments:
# [1] = biological target: T1, PLCγ1 (Rattus norvegicus, UniProt P10686); experiment: Assay of inhibitory activity of compounds against PLCγ1 (hydrolysis of [3H]-phosphatidyl inositol by purified bacterially expressed PLCγ1); assay type: biochemical; details: 30° C., pH 7.5, 0.1% deoxycholate, compound included prior to addition of enzyme
# T1 construct: made in house; host or cells: E. coli BL21 (DE3)
# T1 sequence (P10686 with tags, fused parts or gaps limits assumed): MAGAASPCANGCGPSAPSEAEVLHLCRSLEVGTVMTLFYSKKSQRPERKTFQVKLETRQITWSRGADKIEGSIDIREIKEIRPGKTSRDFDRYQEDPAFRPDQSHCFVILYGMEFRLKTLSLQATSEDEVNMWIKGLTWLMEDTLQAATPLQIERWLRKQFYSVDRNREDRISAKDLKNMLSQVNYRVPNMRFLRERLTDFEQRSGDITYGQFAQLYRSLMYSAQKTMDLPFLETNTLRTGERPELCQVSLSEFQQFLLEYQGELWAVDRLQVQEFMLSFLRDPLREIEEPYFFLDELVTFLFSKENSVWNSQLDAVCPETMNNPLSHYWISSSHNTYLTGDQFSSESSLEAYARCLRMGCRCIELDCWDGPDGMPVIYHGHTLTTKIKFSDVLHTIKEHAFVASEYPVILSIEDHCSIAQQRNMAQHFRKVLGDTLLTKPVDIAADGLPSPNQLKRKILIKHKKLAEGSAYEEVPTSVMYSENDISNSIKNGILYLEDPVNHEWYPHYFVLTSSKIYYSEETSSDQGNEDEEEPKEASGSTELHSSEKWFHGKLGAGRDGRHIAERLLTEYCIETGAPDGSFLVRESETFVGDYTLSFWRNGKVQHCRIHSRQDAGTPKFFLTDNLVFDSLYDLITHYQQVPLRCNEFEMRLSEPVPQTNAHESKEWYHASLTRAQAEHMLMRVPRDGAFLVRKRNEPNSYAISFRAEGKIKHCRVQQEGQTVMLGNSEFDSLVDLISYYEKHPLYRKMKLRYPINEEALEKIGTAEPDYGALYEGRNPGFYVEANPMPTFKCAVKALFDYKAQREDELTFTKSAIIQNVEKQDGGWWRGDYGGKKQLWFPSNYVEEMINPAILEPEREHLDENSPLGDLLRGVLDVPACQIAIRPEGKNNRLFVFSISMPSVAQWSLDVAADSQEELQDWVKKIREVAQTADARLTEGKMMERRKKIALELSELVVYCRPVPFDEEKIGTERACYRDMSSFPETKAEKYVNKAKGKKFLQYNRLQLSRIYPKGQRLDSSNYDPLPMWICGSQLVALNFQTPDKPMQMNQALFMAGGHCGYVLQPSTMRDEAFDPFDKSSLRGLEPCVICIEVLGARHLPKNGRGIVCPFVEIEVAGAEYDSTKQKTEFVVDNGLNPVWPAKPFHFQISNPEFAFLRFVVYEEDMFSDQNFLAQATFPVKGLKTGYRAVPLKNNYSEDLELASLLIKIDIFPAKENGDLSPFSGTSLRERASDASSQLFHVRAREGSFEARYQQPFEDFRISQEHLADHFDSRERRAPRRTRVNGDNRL
# Text: Subcloning of the PLCγ1 Coding Sequence. Rat brain cDNA is synthesized using rat brain poly(A)RNA as template by literature protocol (Sambrook, J. et al., Molecular Cloning: A Laboratory Manual, Cold Spring Harbor Laboratory Press, Cold Spring Harbor, N.Y.). From the published cDNA sequence of rat brain PLCγ1 (Suh, P. -G., Ryu, S. H., Moon, K. H., Suh, H. W., & Rhee, S. G. (1988) Proc. Natl. Acad. Sci. USA 85, 5419-5423), PCR primers, one which contains a BamHI restriction site upstream of the sequence complementary to the 5' end of the PLCγ gene (primer 01 ), and the other one which contains a HindIII site downstream of the 3' end of the PLCγ gene (primer 04), were synthesized. Carrying out the PCR using these primers (01 and 04) with the above mentioned rat brain eDNA as template, a DNA fragment with the entire rat brain PLCγ1 coding sequence, flanked by a 5' BamHI site and a 3' HindIII site, is generated. This BarnHI-HindIII fragment containing the coding sequence of PLCγ1 was subcloned into pBSII(S/K)+, generating pPLCl. The rest of the manipulations were accomplished using PCR to generate the appropriate DNA fragment. The 5' end of the PLCγ1 gene was altered to include a new BarnHi site and a sequence that would eventually translationally couple the expression of PLCγ to the .phi.10 gene of the pT5T vector as described by Eisenberg, S. P., Evans, R. J., Arend, W. P., Verderber, E., Brewer, M. T., Hannum, C. H., & Thompson, R. C. (1990) Nature(London) 343,341-346.
# Using the isolated mutant fragments from each of these PCRs together as template, the final PCR was carried out using primers 03-06 which yielded, after restriction enzyme digestion, a SphI and HindIll fragment which was used to replace the analogous fragment in pPLC2. The resulting plasmid, pPLC3, contained the coding sequence of the PLCγ1 gene on a BarnHI-HindlII fragment with both the sequence encoding the Glu-Glu-Phe tag at the 3' end as well as the changed AGG codons. […] (SEQ.ID.NO.: 3) Finally, the BarnHI-HindIII fragment from pPLC3 was transferred into the BamHI-HindIII site of pTST, generating pTST-PLC4. This construct was used to produce PLCγ1 (containing the Glu-Glu-Phe epitope tag at the C-terminus) translationally coupled to the expression of .phi.10 protein in the pT5T vector.
# Expression and Purification of PLCγ1. To express PLCγ1 the plasmid pT5T-PLC4 was transformed into E. coli BL21 (DE3). The transformed cells were grown in LB media containing ampicillin (100 μg/ml) and tetracycline (12.5 μg/ml) at 20° C. until the optical density of the cultures at 550 nm was equal to 0.8. This transformed bacterial cell has been deposited with the ATCC and has been assigned the number ATCC 69421. Expression of PLCγ1 was then induced by addition of isopropyl β-D-thiogalactopyranoside (0.5 mM final concentration) to the cultures. After growing for another 6 hours the cells were harvested and PLCγ1 was purified as described below. PLCγ1 was isolated from E. coli by resuspending a cell pellet in standard buffer, 50 mM Tris-C1 pH 8.0, 2 mM MgCl2, 10 mM CaCl2, 1 mM EGTA, 5 mM DTT, 5 mM streptomycin sulfate, 1 mM PMSF, 2 μg/ml leupeptin, 2 μg/ml antipain, 10 μg/ml aprotinin (approximately 5 g wet packed cells/10 ml buffer). The resuspended cells were broken by sonication and the cell debris pelleted by centrifugation at 30,000×g at 4° C. for 30 minutes. The soluble fraction was applied at a flow rate of approximately 0.5 ml/min. to a 2 ml column of the monoclonal antibody YL 1/2(4 mg antibody/ml resin) coupled to cyanogen bromide activated Sepharose. The YL1/2 Sepharose column, which binds the epitope tag Glu-Glu-Phe had previously been equilibrated with standard buffer. After loading the protein onto the column, the column was washed with standard buffer (100 mls) PLCγ1 was eluted with 3×5ml 5 mM Asp-Phe dipeptide (Sigma) in standard buffer. The column was regenerated by washing with phosphate buffered saline (PBS)+2 M NaCl and then stored in PBS +0.02% NaN3 (wt./vol). […]
# [2] = test system: phospholipase C; details: background statement; cited from earlier work
# [3] = test system: macrophages; details: background statement; cited from earlier work
# [4] = test system: platelets; details: background statement; cited from earlier work
# [5] = Assay of purified PLCγ1 activity (hydrolysis of [3H]-phosphatidyl inositol); assay type: biochemical; details: 30° C., 50 mM HEPES pH 7.5; bacterially expressed vs naturally derived enzyme in the same assay
# Text: Reactions were never allowed to proceed to more than 10% completion based on the limiting substrate.
Molecule,IC50 ([1]; Table 1),other results
"O=P(O)(O)C(O)c1cccc(Oc2ccccc2Cl)c1 (stereo not drawn) [drawing 1: R3=Cl, R4=H, R5=H]",17 µM,–
"O=P(O)(O)C(O)c1cccc(Oc2ccc(Cl)c(Cl)c2)c1 (stereo not drawn) [drawing 1: R3=H, R4=Cl, R5=Cl]",56 µM,–
"O=P(O)(O)C(O)c1cccc(Oc2cccc(Cl)c2)c1 (stereo not drawn) [drawing 1: R3=H, R4=Cl, R5=H]",10 µM,–
"Cc1ccc(Oc2cccc(C(O)P(=O)(O)O)c2)cc1 (stereo not drawn) [drawing 1: R3=H, R4=H, R5=CH3]",13 µM,–
"O=P(O)(O)C(O)c1cccc(Oc2ccc(Cl)cc2)c1 (stereo not drawn) [drawing 1: R3=H, R4=H, R5=Cl]",36 µM,–
"O=P(O)(O)C(O)c1cccc(Oc2ccccc2)c1 (stereo not drawn) [drawing 1: R3=H, R4=H, R5=H]",190 µM,–
"COc1ccc(Oc2cccc(C(O)P(=O)(O)O)c2)cc1 (stereo not drawn) [drawing 1: R3=H, R4=H, R5=OCH3]",7 µM,–
"O=P(O)(O)C(O)c1cccc(Oc2ccc(O)cc2)c1 (stereo not drawn) [drawing 1: R3=H, R4=H, R5=OH]",3 µM,–
"CCc1cccc(Oc2ccc(C(O)P(=O)(O)O)cc2)c1 (stereo not drawn) [drawing 2: R3=H, R4=CH2CH3, R5=H]",–,IC50 ([1]; Table 2): 37 µM
"O=P(O)(O)C(O)c1ccc(Oc2cccc(Cl)c2)cc1 (stereo not drawn) [drawing 2: R3=H, R4=Cl, R5=H]",–,IC50 ([1]; Table 2): 5 µM
"COc1cccc(Oc2ccc(C(O)P(=O)(O)O)cc2)c1 (stereo not drawn) [drawing 2: R3=H, R4=OCH3, R5=H]",–,IC50 ([1]; Table 2): 8 µM
c1ccc2c(c1)Nc1ccccc1S2 [phenothiazine],–,inhibition of phospholipase C [2]: inhibited; inhibition of stimulated release of arachidonic acid from macrophages [3]: inhibit; inhibition of stimulated release of prostaglandins from platelets [4]: inhibit
B1,–,specific activity [5]: 13.8 µmol/min/mg
